≈ marks a conversion by molar mass, not a printed value.
Experiments:
[1] = test system: Mycobacterium tuberculosis; assay: Antitubercular activity against Mycobacterium tuberculosis H37Rv by microbroth dilution method; format: functional; conditions: Mycobacterium tuberculosis, H37Rv; read-out: MIC
Klebsiella pneumoniae = assay: Antibacterial activity against Klebsiella pneumoniae ATCC 33495 by microbroth dilution method; format: functional
Proteus mirabilis = assay: Antibacterial activity against Proteus mirabilis ATCC 25933 by microbroth dilution method; format: functional
Burkholderia cepacia = assay: Antibacterial activity against Burkholderia cepacia ATCC 25416 by microbroth dilution method; format: functional
Staphylococcus aureus [2] = assay: Antibacterial activity against methicillin-resistant Staphylococcus aureus NRS70 by microbroth dilution method; format: functional; conditions: Staphylococcus aureus, NRS70; read-out: MIC
Proteus vulgaris = assay: Antibacterial activity against Proteus vulgaris ATCC 33420 by microbroth dilution method; format: functional
Staphylococcus aureus [3] = assay: Antibacterial activity against methicillin-sensitive Staphylococcus aureus ATCC 29213 by microbroth dilution method; format: functional; conditions: Staphylococcus aureus, ATCC 29213; read-out: MIC
Bacillus anthracis = assay: Antibacterial activity against Bacillus anthracis Sterne 34F2 by microbroth dilution method; format: functional; conditions: Bacillus anthracis, Sterne 34F2; read-out: MIC
Streptococcus pneumoniae = assay: Antibacterial activity against Streptococcus pneumoniae R6 by microbroth dilution method; format: functional; conditions: Streptococcus pneumoniae, R6; read-out: MIC
Enterococcus faecalis = assay: Antibacterial activity against Enterococcus faecalis ATCC 33186 by microbroth dilution method; format: functional; conditions: Enterococcus faecalis, ATCC 33186; read-out: MIC
Escherichia coli [4] = assay: Antibacterial activity against Escherichia coli K-12 by microbroth dilution method; format: functional
Escherichia coli [5] = assay: Antibacterial activity against Escherichia coli harboring TolC deletion mutant by microbroth dilution method; format: functional
Streptococcus pyogenes = assay: Antibacterial activity against Streptococcus pyogenes ATCC 700294 by microbroth dilution method; format: functional; conditions: Streptococcus pyogenes, ATCC 700294; read-out: MIC
Pseudomonas aeruginosa = assay: Antibacterial activity against Pseudomonas aeruginosa PAO1 by microbroth dilution method; format: functional
Bacillus subtilis = assay: Antibacterial activity against Bacillus subtilis ATCC 23857 by microbroth dilution method; format: functional; conditions: Bacillus subtilis, ATCC 23857; read-out: MIC
Acinetobacter baumannii = assay: Antibacterial activity against Acinetobacter baumannii ATCC 19606 by microbroth dilution method; format: functional, ATCC 19606 = CIP 70.34 = JCM 6841; conditions: Acinetobacter baumannii, ATCC 19606 = CIP 70.34 = JCM 6841; read-out: MIC
[6] = Escherichia coli, read-out: MIC

| SMILES | MIC [1] | MIC (Klebsiella pneumoniae) | MIC (Proteus mirabilis) | MIC (Burkholderia cepacia) | MIC (Staphylococcus aureus [2]) | MIC (Proteus vulgaris) | MIC (Staphylococcus aureus [3]) | MIC (Bacillus anthracis) | MIC (Streptococcus pneumoniae) | MIC (Enterococcus faecalis) | MIC (Escherichia coli [4]) | MIC (Escherichia coli [5]; [6]) | MIC (Streptococcus pyogenes) | MIC (Pseudomonas aeruginosa) | MIC (Bacillus subtilis) | MIC (Acinetobacter baumannii) | MIC (Escherichia coli [5]) |
| --- | --- | --- | --- | --- | --- | --- | --- | --- | --- | --- | --- | --- | --- | --- | --- | --- | --- |
| NNC(=O)c1ccncc1 [ISONIAZID] | 0.03 µg/mL (≈ 0.219 µM) | – | – | – | – | – | – | – | – | – | – | – | – | – | – | – | – |
| COc1ccc2cc1Oc1cc(ccc1OC)CCC(NC(=O)/C=C/c1ccc(F)cc1)CCCC2 (stereo unspecified) | > 100 µg/mL | > 100 µg/mL | > 100 µg/mL | > 100 µg/mL | > 100 µg/mL | > 100 µg/mL | > 100 µg/mL | > 100 µg/mL | > 100 µg/mL | > 100 µg/mL | > 100 µg/mL | > 100 µg/mL | > 100 µg/mL | > 100 µg/mL | > 100 µg/mL | > 100 µg/mL | – |
| COc1ccc2cc1Oc1cc(ccc1OC)CCC(OC(=O)CCc1ccccc1)CCCC2 (stereo unspecified) | > 100 µg/mL | > 100 µg/mL | > 100 µg/mL | > 100 µg/mL | > 100 µg/mL | > 100 µg/mL | > 100 µg/mL | > 100 µg/mL | > 100 µg/mL | > 100 µg/mL | > 100 µg/mL | > 100 µg/mL | > 100 µg/mL | > 100 µg/mL | > 100 µg/mL | > 100 µg/mL | – |
| COc1ccc2cc1Oc1cc(ccc1OC)CCC(N[C@H]1CCCc3ccccc31)CCCC2 (stereo in doubt; 27) | – | > 100 µg/mL | > 100 µg/mL | > 100 µg/mL | > 100 µg/mL | > 100 µg/mL | – | > 100 µg/mL | > 100 µg/mL | > 100 µg/mL | > 100 µg/mL | – | > 100 µg/mL | > 100 µg/mL | > 100 µg/mL | > 100 µg/mL | >100 µg/mL |
| Oc1ccc2cc1Oc1cc(ccc1O)CCC(NCc1ccccc1)CCCC2 (stereo unspecified) | 100 µg/mL (≈ 248 µM) | > 100 µg/mL | > 100 µg/mL | > 100 µg/mL | > 50 µg/mL | > 100 µg/mL | > 50 µg/mL | > 50 µg/mL | > 50 µg/mL | > 50 µg/mL | > 50 µg/mL | 50 µg/mL (≈ 124 µM) | > 50 µg/mL | > 100 µg/mL | > 50 µg/mL | > 50 µg/mL | – |
| COc1ccc2cc1Oc1cc(ccc1OC)CCC(N)CCCC2 (stereo unspecified) | 200 µg/mL (≈ 586 µM) | > 100 µg/mL | > 100 µg/mL | > 100 µg/mL | 200 µg/mL (≈ 586 µM) | > 100 µg/mL | 200 µg/mL (≈ 586 µM) | 100 µg/mL (≈ 293 µM) | 200 µg/mL (≈ 586 µM) | 200 µg/mL (≈ 586 µM) | 200 µg/mL (≈ 586 µM) | 100 µg/mL (≈ 293 µM) | 200 µg/mL (≈ 586 µM) | > 100 µg/mL | 100 µg/mL (≈ 293 µM) | 200 µg/mL (≈ 586 µM) | – |
| O=C(N[C@H](CO)[C@H](O)c1ccc([N+](=O)[O-])cc1)C(Cl)Cl [CHLORAMPHENICOL] | – | > 100 µg/mL | > 100 µg/mL | > 100 µg/mL | 3.12 µg/mL (≈ 9.67 µM) | > 100 µg/mL | 6.25 µg/mL (≈ 19.3 µM) | 3.12 µg/mL (≈ 9.67 µM) | 1.56 µg/mL (≈ 4.83 µM) | – | 6.25 µg/mL (≈ 19.3 µM) | 0.78 µg/mL (≈ 2.41 µM) | 3.12 µg/mL (≈ 9.67 µM) | > 100 µg/mL | 6.25 µg/mL (≈ 19.3 µM) | 50 µg/mL (≈ 155 µM) | – |
| COc1ccc2cc1Oc1cc(ccc1OC)CCC(N(CCO)CCO)CCCC2 (stereo unspecified) | > 100 µg/mL | > 100 µg/mL | > 100 µg/mL | > 100 µg/mL | > 100 µg/mL | > 100 µg/mL | > 100 µg/mL | > 100 µg/mL | > 100 µg/mL | > 100 µg/mL | > 100 µg/mL | > 100 µg/mL | > 100 µg/mL | > 100 µg/mL | > 100 µg/mL | > 100 µg/mL | – |
| COc1ccc2cc1Oc1cc(ccc1OC)CCC(NCCc1ccccn1)CCCC2 (stereo unspecified) | 100 µg/mL (≈ 224 µM) | > 100 µg/mL | > 100 µg/mL | > 100 µg/mL | > 100 µg/mL | > 100 µg/mL | > 100 µg/mL | > 100 µg/mL | 100 µg/mL (≈ 224 µM) | > 100 µg/mL | > 100 µg/mL | 100 µg/mL (≈ 224 µM) | > 100 µg/mL | > 100 µg/mL | 100 µg/mL (≈ 224 µM) | > 100 µg/mL | – |
| CCN(CC)C1CCCCc2ccc(OC)c(c2)Oc2cc(ccc2OC)CC1 (stereo unspecified) | 100 µg/mL (≈ 252 µM) | > 100 µg/mL | > 100 µg/mL | > 100 µg/mL | > 100 µg/mL | > 100 µg/mL | > 100 µg/mL | > 100 µg/mL | > 100 µg/mL | > 100 µg/mL | > 100 µg/mL | > 100 µg/mL | > 100 µg/mL | > 100 µg/mL | > 100 µg/mL | > 100 µg/mL | – |

Source: ChEMBL document CHEMBL4477227, “Synthesis and antibacterial evaluation of macrocyclic diarylheptanoid derivatives” (Bioorg Med Chem Lett, 2016)
